# Measurements taken from ChEMBL document CHEMBL5715942, “A novel histone deacetylase 8 (HDAC8)-specific inhibitor PCI-34051 induces apoptosis in T-cell lymphomas” (Leukemia, 2008).
# Activity calls are given as the source filed them. The calls are words filed in the database; no cut-off is given here.
# Assays:
# A549 [1] = experiment: Induction of apoptosis in human A549 cells incubated for 72 hrs by Annexin-V staining based flow cytometry analysis relative to control; format: functional
# MCF7 [2] = experiment: Anti-proliferative activity against human MCF7 cells assessed as growth inhibition incubated for 72 hrs by alamar blue staining based fluorometric assay; format: functional
# OVCAR-3 [3] = experiment: Anti-proliferative activity against human OVCAR-3 cells assessed as growth inhibition incubated for 72 hrs by alamar blue staining based fluorometric assay; format: functional
# RKO [4] = experiment: Anti-proliferative activity against human RKO cells assessed as growth inhibition incubated for 72 hrs by alamar blue staining based fluorometric assay; format: functional
# U-87 MG [5] = experiment: Anti-proliferative activity against human U87 cells assessed as growth inhibition incubated for 72 hrs by alamar blue staining based fluorometric assay; format: functional, U-87MG ATCC
# HeLa = experiment: Anti-proliferative activity against human HeLa cells assessed as growth inhibition incubated for 72 hrs by alamar blue staining based fluorometric assay; format: functional
# HCT-116 [6] = experiment: Anti-proliferative activity against human HCT-116 cells assessed as growth inhibition incubated for 72 hrs by alamar blue staining based fluorometric assay; format: functional
# HCT-116 [7] = experiment: Induction of apoptosis in human HCT-116 cells incubated for 72 hrs by Annexin-V staining based flow cytometry analysis relative to control; format: functional
# U-87 MG [8] = experiment: Induction of apoptosis in human U87 cells incubated for 72 hrs by Annexin-V staining based flow cytometry analysis relative to control; format: functional, U-87MG ATCC
# RKO [9] = experiment: Induction of apoptosis in human RKO cells incubated for 72 hrs by Annexin-V staining based flow cytometry analysis relative to control; format: functional
# MCF7 [10] = experiment: Induction of apoptosis in human MCF7 cells incubated for 72 hrs by Annexin-V staining based flow cytometry analysis relative to control; format: functional
# OVCAR-3 [11] = experiment: Induction of apoptosis in human OVCAR-3 cells incubated for 72 hrs by Annexin-V staining based flow cytometry analysis relative to control; format: functional
# Jurkat [12] = experiment: Anti-proliferative activity against human Jurkat cells assessed as growth inhibition incubated for 72 hrs by alamar blue staining based fluorometric assay; format: functional
# HuT78 [13] = experiment: Anti-proliferative activity against human HuT78 cells assessed as growth inhibition incubated for 72 hrs by alamar blue staining based fluorometric assay; format: functional
# CCRF-HSB-2 [14] = experiment: Anti-proliferative activity against human CCRF-HSB-2 cells assessed as growth inhibition incubated for 72 hrs by alamar blue staining based fluorometric assay; format: functional
# MOLT-4 [15] = experiment: Anti-proliferative activity against human MOLT-4 cells assessed as growth inhibition incubated for 72 hrs by alamar blue staining based fluorometric assay; format: functional
# SUD4 [16] = experiment: Anti-proliferative activity against human SU-DHL-4 cells assessed as growth inhibition incubated for 72 hrs by alamar blue staining based fluorometric assay; format: functional
# Ramos [17] = experiment: Anti-proliferative activity against human Ramos cells assessed as growth inhibition incubated for 72 hrs by alamar blue staining based fluorometric assay; format: functional
# Raji [18] = experiment: Anti-proliferative activity against human Raji cells assessed as growth inhibition incubated for 72 hrs by alamar blue staining based fluorometric assay; format: functional
# DB [19] = experiment: Anti-proliferative activity against human DB cells assessed as growth inhibition incubated for 72 hrs by alamar blue staining based fluorometric assay; format: functional
# K562 [20] = experiment: Anti-proliferative activity against human K562 cells assessed as growth inhibition incubated for 72 hrs by alamar blue staining based fluorometric assay; format: functional
# THP-1 [21] = experiment: Anti-proliferative activity against human THP-1 cells assessed as growth inhibition incubated for 72 hrs by alamar blue staining based fluorometric assay; format: functional
# RPMI-8226 [22] = experiment: Anti-proliferative activity against human RPMI-8226 cells assessed as growth inhibition incubated for 72 hrs by alamar blue staining based fluorometric assay; format: functional
# SUD4 [23] = experiment: Induction of apoptosis in human SU-DHL-4 cells assessed as cell death at 5 uM incubated for 2 days by Annexin-V staining based flow cytometry analysis; format: functional; settings: time 2.0 day
# Jurkat [24] = experiment: Induction of apoptosis in human Jurkat cells assessed as cell death at 5 uM incubated for 2 days by Annexin-V staining based flow cytometry analysis; format: functional; settings: time 2.0 day
# HuT78 [25] = experiment: Induction of apoptosis in human HuT78 cells assessed as cell death at 5 uM incubated for 2 days by Annexin-V staining based flow cytometry analysis; format: functional; settings: time 2.0 day
# CCRF-HSB-2 [26] = experiment: Induction of apoptosis in human CCRF-HSB-2 cells assessed as cell death at 5 uM incubated for 2 days by Annexin-V staining based flow cytometry analysis; format: functional; settings: time 2.0 day
# MOLT-4 [27] = experiment: Induction of apoptosis in human MOLT-4 cells assessed as cell death at 5 uM incubated for 2 days by Annexin-V staining based flow cytometry analysis; format: functional; settings: time 2.0 day
# Ramos [28] = experiment: Induction of apoptosis in human Ramos cells assessed as cell death at 5 uM incubated for 2 days by Annexin-V staining based flow cytometry analysis; format: functional; settings: time 2.0 day
# Raji [29] = experiment: Induction of apoptosis in human Raji cells assessed as cell death at 5 uM incubated for 2 days by Annexin-V staining based flow cytometry analysis; format: functional; settings: time 2.0 day
# DB [30] = experiment: Induction of apoptosis in human DB cells assessed as cell death at 5 uM incubated for 2 days by Annexin-V staining based flow cytometry analysis; format: functional; settings: time 2.0 day
# THP-1 [31] = experiment: Induction of apoptosis in human THP-1 cells assessed as cell death at 5 uM incubated for 2 days by Annexin-V staining based flow cytometry analysis; format: functional; settings: time 2.0 day
# K562 [32] = experiment: Induction of apoptosis in human K562 cells assessed as cell death at 5 uM incubated for 2 days by Annexin-V staining based flow cytometry analysis; format: functional; settings: time 2.0 day
# RPMI-8226 [33] = experiment: Induction of apoptosis in human RPMI-8226 cells assessed as cell death at 5 uM incubated for 2 days by Annexin-V staining based flow cytometry analysis; format: functional; settings: time 2.0 day
# Jurkat [34] = experiment: Cytotoxicity in human Jurkat cells assessed as tubulin acetylation at <25 uM incubated for 24 hrs by Western blotting analysis; format: functional, cell-based
# Jurkat [35] = experiment: Cytotoxicity in human Jurkat cells assessed as histone acetylation at <25 uM incubated for 24 hrs by Western blotting analysis; format: functional, cell-based
# Jurkat [36] = experiment: Induction of apoptosis in human Jurkat cells assessed as increased caspase-3 activity at 5 uM incubated for 12 to 48 hrs by colorimetric assay; format: functional, cell-based; settings: time 12-48 hrs
# Jurkat [37] = experiment: Induction of apoptosis in human Jurkat cells assessed as PARP cleavage at 5 uM incubated for 48 hrs by Western blotting analysis; format: functional, cell-based
# J.gamma1 [38] = experiment: Induction of apoptosis in human J.gamma1 cells assessed as abolished intracellular calcium level at 10 uM incubated for 5 mins in presence of Iodo-1 by spectrofluorimetric analysis; format: functional, cell-based
# Jurkat [39] = experiment: Induction of apoptosis in human Jurkat cells assessed as increase in intracellular calcium level at 2.5 to 10 uM incubated for 5 mins in presence of Iodo-1 and Ionomycin by spectrofluorimetric analysis; format: functional, cell-based; settings: dose 2.5-10 µM
# Jurkat [40] = experiment: Induction of apoptosis in human Jurkat cells assessed as increase in intracellular calcium level incubated for 5 mins in presence of Iodo-1 by spectrofluorimetric analysis; format: functional, cell-based; settings: dose 2.5-10 µM
# J.gamma1 [41] = experiment: Induction of apoptosis in human J.gamma1 cells at 5 uM incubated for 24 hrs in presence of thapsigargin by Annexin-V staining based flow cytometry analysis relative to control; format: functional
# Jurkat [42] = experiment: Downregulation of apoptosis in human Jurkat cells incubated for 24 hrs in presence of BAPTA-AM by Annexin-V staining based flow cytometry analysis; format: functional, cell-based; settings: dose 10.0 µM
# Jurkat [43] = experiment: Induction of apoptosis in human Jurkat cells at 5 uM incubated for 24 hrs in presence of thapsigargin by Annexin-V staining based flow cytometry analysis relative to control; format: functional
# Jurkat [44] = experiment: Downregulation of apoptosis in human Jurkat cells incubated for 2 days in presence of U73122 by Annexin-V staining based flow cytometry analysis; format: functional, cell-based; settings: dose 10.0 µM, time 2.0 day
# Jurkat [45] = experiment: Downregulation of apoptosis in human Jurkat cells at 10 uM incubated for 2 days in presence of U-73343 by Annexin-V staining based flow cytometry analysis; format: functional, cell-based; settings: time 2.0 day
# J.gamma1 [46] = experiment: Induction of apoptosis in human J.gamma1 cells at 10 uM incubated for 2 days in presence of U-73122 by Annexin-V staining based flow cytometry analysis; format: functional, cell-based; settings: time 2.0 day
# J.gamma1 [47] = experiment: Induction of apoptosis in human J.gamma1 cells at 10 uM incubated for 2 days in presence of U-73343 by Annexin-V staining based flow cytometry analysis; format: functional, cell-based; settings: time 2.0 day
# J.gamma1 [48] = experiment: Downregulation of apoptosis in human J.gamma1 cells at 5 uM incubated for 2 days by Annexin-V staining based flow cytometry analysis; format: functional, cell-based; settings: time 2.0 day
# Jurkat [49] = experiment: Induction of apoptosis in human Jurkat cells assessed as decrease in intracellular calcium level at 10 uM in presence of Iodo-1 and U73122 by spectrofluorimetric analysis; format: functional, cell-based
# Jurkat [50] = experiment: Induction of apoptosis in human Jurkat cells assessed as intracellular calcium level at 10 uM in presence of Iodo-1 and U73343 by spectrofluorimetric analysis; format: functional, cell-based
# Jurkat [51] = experiment: Induction of apoptosis in human Jurkat cells assessed as increase in cytosolic cytochrome c level at 10 uM incubated for 12 to 24 hrs by Western blotting analysis; format: functional, cell-based; settings: time lower 12.0 hrs, time upper […]
# J.gamma1 [52] = experiment: Induction of apoptosis in human J.gamma1 cells assessed as cytochrome c release from mitochondria at 10 uM incubated for 12 to 24 hrs by Western blotting analysis; format: functional, cell-based; settings: time lower 12.0 hrs, time upper […]
# Jurkat [53] = experiment: Induction of apoptosis in human Jurkat cells assessed as decrease in FL-Bid at 5 uM incubated for 24 hrs by Western blotting analysis
# J.gamma1 [54] = experiment: Downregulation of apoptosis in human J.gamma1 cells at 10 uM incubated for 24 hrs in presence of BAPTA-AM by Annexin-V staining based flow cytometry analysis
# A549 [55] = experiment: Anti-proliferative activity against human A549 cells assessed as growth inhibition incubated for 72 hrs by alamar blue staining based fluorometric assay; format: functional
# Jurkat [56] = experiment: Cytotoxicity in tubulin in human Jurkat cells assessed as tubulin acetylation at 0.2 uM incubated for 24 hrs by Western blotting analysis; format: functional, cell-based
# Jurkat [57] = experiment: Cytotoxicity in human Jurkat cells assessed as histone acetylation at 0.2 uM incubated for 24 hrs by Western blotting analysis; format: functional, cell-based
compound,measurement,setting,value
COc1ccc(Cn2ccc3ccc(C(=O)NO)cc32)cc1,Activity,A549 [1],0%
same,GI50,MCF7 [2],> 20000 nM
same,GI50,OVCAR-3 [3],6 µM
same,GI50,RKO [4],14 µM
same,GI50,U-87 MG [5],17 µM
same,GI50,HeLa,> 20000 nM
same,GI50,HCT-116 [6],> 20000 nM
same,Activity,HCT-116 [7],3%
same,Activity,U-87 MG [8],0%
same,Activity,RKO [9],0%
same,Activity,MCF7 [10],0%
same,Activity,OVCAR-3 [11],15%
same,GI50,Jurkat [12],2400 nM
same,GI50,HuT78 [13],4000 nM
same,GI50,CCRF-HSB-2 [14],1400 nM
same,GI50,MOLT-4 [15],3300 nM
same,GI50,SUD4 [16],8.2 µM
same,GI50,Ramos [17],6.1 µM
same,GI50,Raji [18],6.8 µM
same,GI50,DB [19],21.2 µM
same,GI50,K562 [20],33.6 µM
same,GI50,THP-1 [21],15.4 µM
same,GI50,RPMI-8226 [22],28 µM
same,Activity,SUD4 [23],inactive
same,Activity,Jurkat [24],Active
same,Activity,HuT78 [25],Active
same,Activity,CCRF-HSB-2 [26],Active
same,Activity,MOLT-4 [27],Active
same,Activity,Ramos [28],inactive
same,Activity,Raji [29],inactive
same,Activity,DB [30],inactive
same,Activity,THP-1 [31],inactive
same,Activity,K562 [32],inactive
same,Activity,RPMI-8226 [33],inactive
same,Activity,Jurkat [34],inactive
same,Activity,Jurkat [35],inactive
same,Activity,Jurkat [36],Active
same,Activity,Jurkat [37],Active
same,Activity,J.gamma1 [38],inactive
same,Activity,Jurkat [39],Active
same,Activity,Jurkat [40],Dose-Dependent Effect
same,Activity,J.gamma1 [41],2%
same,Activity,Jurkat [42],Dose-Dependent Effect
same,Activity,Jurkat [43],> 30%
same,Activity,Jurkat [44],Dose-Dependent Effect
same,Activity,Jurkat [45],inactive
same,Activity,J.gamma1 [46],inactive
same,Activity,J.gamma1 [47],inactive
same,Activity,J.gamma1 [48],Active
same,Activity,Jurkat [49],Active
same,Activity,Jurkat [50],Active
same,Activity,Jurkat [51],Active
same,Activity,J.gamma1 [52],inactive
same,Activity,Jurkat [53],inactive
same,Activity,J.gamma1 [54],inactive
CN(C)Cc1c(C(=O)NCCOc2ccc(C(=O)NO)cc2)oc2ccccc12.Cl [ABEXINOSTAT HYDROCHLORIDE],Activity,A549 [1],47%
same,GI50,MCF7 [2],150 nM
same,GI50,OVCAR-3 [3],0.16 µM
same,GI50,RKO [4],1.5 µM
same,GI50,U-87 MG [5],1.2 µM
same,GI50,HeLa,200 nM
same,GI50,HCT-116 [6],200 nM
same,GI50,A549 [55],180 nM
same,Activity,HCT-116 [7],70%
same,Activity,RKO [9],45%
same,Activity,MCF7 [10],37%
same,Activity,OVCAR-3 [11],55%
same,GI50,Jurkat [12],110 nM
same,GI50,HuT78 [13],110 nM
same,GI50,CCRF-HSB-2 [14],100 nM
same,GI50,MOLT-4 [15],120 nM
same,GI50,SUD4 [16],0.1 µM
same,GI50,Ramos [17],0.13 µM
same,GI50,Raji [18],0.12 µM
same,GI50,DB [19],0.15 µM
same,GI50,K562 [20],0.15 µM
same,GI50,THP-1 [21],0.075 µM
same,GI50,RPMI-8226 [22],0.12 µM
same,Activity,Jurkat [56],Active
same,Activity,Jurkat [57],Active
same,Activity,Jurkat [53],Active
